Consider two molecules from PMC3161630, “Targeted Chemotherapy Using a Cytotoxic Somatostatin Conjugate to Inhibit Tumor Growth and Metastasis in Nude Mice” (Clinical Medicine. Oncology, 2008).

Assay [1] deals with non-transfected CHO cells. The assay can be described thus: Ligand-receptor binding assay, non-transfected CHO cells. Here is the method: The assay was performed as a modification of the one previously described. The binding buffer contained Dulbecco’s Modified Eagle’s Medium (DMEM), 50 mM HEPES, 2 mM glutamine, 11.5 mM glucose, 1% bovine serum albumin (BSA) and 5 mM sodium pyruvate. The binding reactions took place in 1.5 ml eppendorf tubes containing 70–100 pM of [^125I]Tyr^11-SST-14 from PerkinElmer (Boston, MA 02118–2512), 1–1.5 × 10^5 cells and the tested SST analogs (10^−5 to 10^−13 M) for a total volume of 300 μl. These were incubated at room temperature for 50–60 minutes and centrifuged for 1–2 min at 9,000 g. The cell pellets were washed twice with phosphate-buffered saline (PBS) and counted for total radioactivity in a Titertek gamma counter (Huntsville, AL). The analyses were done using GraphPad Prism 4.0 (San Diego, […]). For further internalization, cells were then re-suspended and incubated in HBSS (pH4, acetic acid) on ice for 10 min, washed with cold PBS and then re-counted for radioactivity. Due to the radioactivity of membrane-bound receptors being released by the acid wash, the remaining radioactivity represents the internalized peptide.

Assay [2] has as its system neuroblastoma IMR32 cells. The experiment in a line: Cell proliferation assay (MTT), IMR32. Type of assay: cell-based, human. The conditions noted are these: table: mean ± SEM (n). As to the method: (§1) The CHO-R1 and CHO-R2 cell lines, which were transfected with rat SSTR1 and SSTR2, respectively, were a kind gift from Dr. Agnes Schonbrunn (University of Texas—Houston, Houston, TX). Cells were cultured in F-12 medium containing 10% fetal calf serum. All other human tumor cell lines, including neuroblastoma IMR32, leukemia MOLT-4, pancreatic cancer CFPAC-1, prostate cancer PC-3 were purchased from ATCC (American Type Culture Collection, Manassas, VA). Human pancreatic carcinoid BON cells were a kind gift from Dr. Courtney Townsend (University of Texas—Galveston) and cultured as described previously.
(§2) The kits for the cell proliferation assay (MTT Assay) were purchased from Promega (Madison, WI) and the protocol was the same as described previously.

For assay [3], the system named is pancreatic cancer CFPAC-1 cells. The experiment in a line: Cell proliferation assay (MTT), CFPAC-1. In kind it is cell-based, human. The note with it: table: mean ± SEM (n). As to the method: as §1, §2
The test system of assay [4] is pancreatic carcinoid BON cells. The assay can be described thus: Cell proliferation assay (MTT), BON. In kind it is cell-based, human. The conditions noted are these: table: mean ± SEM (n). As to the method: as §1, §2
Assay [5] relates to prostate cancer PC-3 cells. The assay can be described thus: Cell proliferation assay (MTT), PC-3. Type of assay: cell-based, human. The conditions noted are these: table: mean ± SEM (n). Here is the method:
as §1, §2

The next assay has as its system leukemia MOLT-4 cells. The assay can be described thus: Cell proliferation assay (MTT), MOLT-4. The conditions noted are these: table: mean ± SEM (n). Type of assay: cell-based, human. As to the method:
as §1, §2

Assay [6] concerns pancreatic carcinoid BON tumors. The assay can be described thus: Tumor growth, continuous drug-releasing pellets, BON tumors. In kind it is in vivo, nude mice. The note with it: 5 mg/pellet. Here is the method:
The cytotoxic CPT-SST conjugate JF-10-81 was synthesized as described previously. Continuous drug-releasing pellets containing JF-10-81 (5 mg/pellet) formulated to release drug for 60 days, were made by Innovative Research of America (Sarasota, FL).
Male nude mice, 5–7 weeks of age upon arrival, were purchased from the National Cancer Institute (NCI, Frederik, MD). The animal study was approved by the Tulane University Health Sciences Center Institutional Animal Care and Use Committee (IACUC).
The tumor tissue segments, grown from CFPAC-1, IMR32, MOLT-4 and BON cells injected into nude mice, were s.c. implanted into the flanks of nude mice as described previously. All the tumors were passaged from mouse to mouse. Tumor-carrying mice then were implanted with continuous drug-releasing pellets containing 5 mg of JF-10-81.
For treatments of pancreatic cancer CFPAC-1 tumors, mice were separated into 2 groups. Each mouse in the control group was implanted with a placebo pellet. Each mouse in the test group was implanted with a pellet containing JF-10-81 (5 mg/pellet) with a drug-release time of 60 days. Tumor volumes were measured and bodyweights were taken once a week. The treatment for all other tumors (BON, IMR32 and MOLT-4) was the same as above.

Regarding `C[C@H](N)C(=O)NCC(=O)N[C@H]1CSSC[C@@H](C(=O)O)NC(=O)[C@H](CO)NC(=O)[C@H]([C@@H](C)O)NC(=O)[C@H](Cc2ccccc2)NC(=O)[C@H]([C@@H](C)O)NC(=O)[C@H](CCCCN)NC(=O)[C@H](Cc2c[nH]c3ccccc23)NC(=O)[C@H](Cc2ccccc2)NC(=O)[C@H](Cc2ccccc2)NC(=O)[C@H](CC(N)=O)NC(=O)[C@H](CCCCN)NC1=O` [SST-14], in assay [1], the “affinity to the non-transfected CHO cells” value is given as “no affinity”.

For `CC[C@@]1(O)C(=O)OCc2c1cc1n(c2=O)Cc2cc3ccccc3nc2-1` [CPT, camptothecin], the EC50 in assay [2] (Homo sapiens, IMR-32, MTT assay) was determined as 2.8 nM; in assay [2] (MTT assay), 2.82 ± 0.14 nM; in assay [3] (Homo sapiens, CFPAC-1, MTT assay) it was 25.5 nM; in assay [3] (MTT assay), 25.5 ± 5.6 nM; in assay [4] (Homo sapiens), 171 nM; in assay [4], 171 ± 14.6 nM. Besides, the EC50 in assay [5] (Homo sapiens, PC-3, MTT assay) came to 20.8 nM; in assay [5] (MTT assay), 20.8 ± 2.82 nM; in the assay with leukemia MOLT-4 cells (Homo sapiens, MOLT-4, MTT assay) it was 2 nM; in the assay on leukemia MOLT-4 cells (MTT assay) it was 1.96 ± 0.32 nM. Moreover, the “Inhibition (%)” value in assay [6] (42 days, vs placebo) is 42%. Moreover, the “percentage increase of tumor volumes” value in assay [6] (vs initial) is 278%.
